The values below are quoted from earlier work in patent US20060280819A1, “Ellagic acid food supplement prepared from pomegranate seed” (priority 2005, published 2006).

The structures appear in SMILES notation.

In one series the test system is p53 gene. Particulars: clinical tests.
Series [1] concerns breast, pancreas, esophageal, skin, colon and prostate cancer cells.
A further series has as its system cancer cells. As to conditions: lab tests.
For the next series, the system named is normal healthy cells. As to conditions: lab tests.

Turning to `O=c1oc2c(O)c(O)cc3c(=O)oc4c(O)c(O)cc1c4c23` [ellagic acid], the “effect on destruction of the p53 gene by cancer cells” value with p53 gene is “prevents the destruction of the p53 gene”. For the same molecule, in series [1], the “time to G-arrest (inhibiting and stopping mitosis-cancer cell division)” value is at most 48 h; the “time to apoptosis (normal cell death)” value is at most 72 h. Moreover, the “apoptosis (cell death) of cancer cells” value in the series on cancer cells is on record as “causes apoptosis”. Besides, in the series with normal healthy cells, the “effect on normal healthy cells” value is reported as “no change”.
